Source: US8653054B2, “2-(N-substituted piperazinyl) steroid derivatives” (Universite Laval, priority 2008, dated 2014)
Where two headings read alike, the source gives them in different places. Each block holds one compound with its values, some of them ahead of it.

Tests used:
[1] = system: HL-60 acute promyelocytic leukemia cells; experiment: Cell proliferation assay (MTS) on HL-60 leukemia cells; type: cell-based, human;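 note: cells exposed to serially diluted compound for 3 days at 37 °C, then viable cell number read via MTS conversion to coloured formazan by metabolically active cells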
Protocol: (§1) All of the following cell lines were maintained under a CO2 humidified atmosphere at 37° C. The culture media were changed every 3-4 days and the cells were split once a week.
(§2) For the assay, the culture medium was the same.
(§3) The cell proliferation assay was performed using 3-(4,5-dimethylthiazol-2-yl)-5-(3-carboxymethoxyphenyl)2-(4-sulfophenyl)-2H-tetrazolium (MTS) (Cell Titer 96 Aqueous, Promega, USA). MTS is converted into water-soluble colored formazan by dehydrogenase enzymes present in metabolically active cells, which allows the measurement of the number of viable cells.
(§4) The cells were incubated at 37° C. and 5% CO2. The steroid derivatives of the present disclosure were dissolved in ethanol to prepare the 1×10^−2 M stock solutions. The stock solutions and doxorubicin (DOX) (Novapharm, Toronto, Canada) were diluted at multiple concentrations with culture media, added to each well, as indicated, and incubated for 3 days. Following each treatment, 20 μl MTS was added to each well and the mix was incubated for 4 h.

[2] = Plasmatic concentration (AUC) of aminosteroids after a single subcutaneous injection in rat; settings: 2.3 mg/kg; for AUC (0-3 h) / AUC (0-12 h): Table 6, subcutaneous one time; for AUC (7 h) / AUC (24 h) / AUC(12 h): Table 5, subcutaneous one time
[3] = system: MCF-7 breast cancer cells; experiment: Cell proliferation assay (MTS) on MCF-7 breast cancer cells; type: cell-based, human; settings: Table 3, 3 days incubation
Protocol: MCF-7 breast cancer cells were maintained in Dulbecco's Modified Eagle's Medium (DMEM) containing a nutriment mixture F-12 ham (DME-F12) (Sigma, Saint Louis, USA) supplemented with 5% (v/v) fetal bovine serum (FBS), L-glutamine ([…]), penicillin (100 IU/ml), streptomycin sulphate (50 μg/ml) and estradiol (1 nM). For the assay, DME-F12 was supplemented with 5% (v/v) charcoal-strippes FBS, insulin (50 ng/ml) and the same concentrations of antibiotics as above.

[4] = system: OVCAR-3 ovarian cancer cells; experiment: Cell proliferation assay (MTS) on OVCAR-3 ovarian cancer cells; type: cell-based
Text: For the assay, the culture medium was the same, but without estradiol.

K-562 leukemia cells = experiment: Cell proliferation assay (MTS) on K-562 leukemia cells; type: cell-based; settings: Table 3, 3 days incubation
Protocol: as §1, §2, §3, §4

[5] = system: LNCaP prostate cancer cells; experiment: Cell proliferation assay (MTS) on LNCaP prostate cancer cells; type: cell-based; settings: Table 3, 3 days incubation
Protocol: as §3, §4

[6] = system: PC-3 (AR−) prostate cancer cells; experiment: Cell proliferation assay (MTS) on PC-3 (AR−) prostate cancer cells; type: cell-based; settings: Table 3, 3 days incubation
Protocol: as §1, §2, §3, §4

[7] = system: normal lymphocytes from peripheral blood; experiment: Cell proliferation assay (MTS) on normal lymphocytes; settings: read-out: IC50 Lymph Norm.
Protocol: as §1, §2, §3, §4

[8] = system: MDA-MB-231 (ER−) breast cancer cells; experiment: Cell proliferation assay (MTS) on MDA-MB-231 (ER−) breast cancer cells; type: cell-based; settings: Table 3, 3 days incubation
[9] = system: Shionogi mammary carcinoma cells (AR+); experiment: Cell proliferation assay (MTS) on Shionogi mammary carcinoma cells; type: cell-based; settings: Table 3, 3 days incubation
Protocol: Shionogi mammary carcinoma cells bearing androgen-sensitive (AR+) were routinely grown in Eagle's Minimal Essential Medium (MEM) (Sigma, Saint Louis, USA) supplemented with 5% (v/v) fetal bovine serum (FBS), penicillin (100 IU/ml), streptomycin sulphate (50 μg/ml), 1% (v/v) non-essential amino acids and dihydrotestosterone DHT (10^−8 M). For the assay, MEM devoid of the pH indicator phenol red was supplemented with 2% (v/v) charcoal-strippes FBS and the same concentrations of antibiotics and non-essential amino acids as above.

[10] = system: WI-38 diploid fibroblasts; experiment: Cell proliferation assay (MTS) on WI-38 normal fibroblasts; type: cell-based, human; settings: Table 3, normal cells, 3 days incubation
Protocol: WI-38 diploid fibroblasts derived from embryonic human lung were cultured in MEM (devoid of the pH indicator phenol red) supplemented with 10% (v/v) FBS, L-glutamine (2 nM), penicillin (100 IU/ml), streptomycin sulphate (50 μg/ml), sodium pyruvate (1 mM) and non-essential amino acids (0.1 mM).
as §3, §4

in vivo = settings: male, Sprague-Dawley, rat, sc, 2.3 mg/kg
[11] = Table 4, HL-60 cancer cell line, read-out: IC50
[12] = Table 6, HL-60 cancer cell line, read-out: IC50 (HL-60)
[13] = Homo sapiens, OVCAR-3, 72 h, Table 3, 3 days incubation, MTS
[14] = Homo sapiens, HL-60, 72 h, Table 3, 3 days incubation, MTS, read-out: IC50 HL-60
[15] = Homo sapiens, Table 4, HL-60 cancer cell line, read-out: IC50
[16] = Homo sapiens, Table 6, HL-60 cancer cell line, read-out: IC50 (HL-60)
[17] = Table 3, 3 days incubation, MTS
[18] = Table 3, 3 days incubation, MTS, read-out: IC50 HL-60
[19] = Table 3, normal lymphocytes, 3 days incubation, MTS

SMILES: C[C@]12C[C@H](N3CCN(C(=O)[C@@H]4CCCN4C(=O)c4ccc5ccccc5c4)CC3)[C@@H](O)C[C@@H]1CC[C@@H]1[C@@H]2CC[C@@]2(C)[C@H]1CC[C@]2(C)O [30 (AH-56), {4-[(2β,3α,17β)-3,17-dihydroxy-17-methylandrostan-2-yl]piperazin-1-yl}[(2S)-1-(naphthalen-2-ylcarbonyl)pyrrolidin-2-yl]methanone]
IC50 [1, 11]: 4700 nM
IC50 [1, 12]: 4700 nM
AUC (0-3 h) [2]: 183 ng·h/mL
AUC (0-12 h) [2]: 876 ng·h/mL

IC50 ([3]; Homo sapiens, MCF7, 72 h): > 10000 nM
IC50 ([4]; Homo sapiens, OVCAR-3): 900 nM
IC50 [4, 13]: 900 nM
IC50 (K-562 leukemia cells; Homo sapiens, K562, 72 h): 400 nM
IC50 [1, 14]: 80 nM
IC50 ([5]; Homo sapiens, LNCaP, 72 h): 100 nM
IC50 ([6]; PC3/AR, 72 h): 900 nM
IC50 ([8]; Homo sapiens, MDA-MB-231, 72 h): 900 nM
IC50 ([9]; 72 h): 1300 nM
SMILES: COc1cccc2c1C(=O)c1c(O)c3c(c(O)c1C2=O)C[C@@](O)(C(=O)CO)C[C@@H]3O[C@H]1C[C@H](N)[C@H](O)[C@H](C)O1 [Doxorubicin, reference compound]
IC50 ([7]; Lymphocyte, 72 h): 160 nM
IC50 ([10]; Homo sapiens, WI-38, 72 h): 3000 nM

SMILES: CC(=O)c1cccc(C(=O)N[C@@H](Cc2ccccc2)C(=O)N2CCN([C@H]3C[C@@]4(C)[C@@H](CC[C@@H]5[C@@H]4CC[C@]4(C)[C@@H](O)CC[C@@H]54)C[C@@H]3O)CC2)c1 [FC-48, 3-acetyl-N-[(2S)-1-{4-[(2β,3α,5α,17β)-3,17-Dihydroxyandrostan-2-yl]piperazin-1-yl}1-oxo-3-phenylpropan-2-yl]benzamide]
IC50 ([3]; Homo sapiens, MCF7, 72 h): 1500 nM
IC50 [4, 13]: 1600 nM
IC50 (K-562 leukemia cells; Homo sapiens, K562, 72 h): > 10000 nM
IC50 [1, 14]: 1800 nM
IC50 ([5]; Homo sapiens, LNCaP, 72 h): 2200 nM
IC50 ([6]; PC3/AR, 72 h): > 10000 nM
IC50 ([7]; Lymphocyte, 72 h): > 50000 nM
IC50 ([8]; Homo sapiens, MDA-MB-231, 72 h): > 10000 nM
IC50 ([9]; 72 h): 1300 nM
IC50 ([10]; Homo sapiens, WI-38, 72 h): > 10000 nM
AUC(0-t) (in vivo; AUC (7 h)): 290 ng·h/mL
AUC(0-t) (in vivo; AUC (24 h)): 555 ng·h/mL
AUC(0-t) (in vivo; AUC(12 h)): 413 ng·h/mL

SMILES: CO[C@H]1CC[C@H]2[C@@H]3CCC4C[C@H](O)[C@@H](N5CCN(C(=O)[C@@H]6CCCN6C(=O)c6ccc7ccccc7c6)CC5)C[C@]4(C)[C@H]3CC[C@]12C (stereo partly drawn) [37 (AH-55), {4-[(2β,3α,17β)-3-hydroxy-17-methoxyandrostan-2-yl]piperazin-1-yl}[(2S)-1-(naphthalen-2-ylcarbonyl)pyrrolidin-2-yl]methanone]
IC50 [1, 15]: 4500 nM
IC50 [1, 16]: 4500 nM
AUC(0-t) (in vivo; AUC (0-3 h)): 50 ng·h/mL
AUC(0-t) (in vivo; AUC (0-12 h)): 234 ng·h/mL

SMILES: C[C@]12C[C@H](N3CCN(C(=O)[C@@H]4CCCN4C(=O)c4ccc(C#N)cc4)CC3)[C@@H](O)C[C@@H]1CC[C@@H]1[C@@H]2CC[C@]2(C)[C@@H](O)CC[C@@H]12 [PC-41, 4-{[(2S)-2-({4-[(2β,3α,5α,17β)-3,17-dihydroxyandrostan-2-yl]piperazin-1-yl}carbonyl)pyrrolidin-1-yl]carbonyl}benzonitrile]
IC50 ([3]; Homo sapiens, MCF7, 72 h): 400 nM
IC50 [4, 13]: 800 nM
IC50 (K-562 leukemia cells; Homo sapiens, K562, 72 h): > 10000 nM
IC50 [1, 14]: 3100 nM
IC50 ([5]; Homo sapiens, LNCaP, 72 h): 1000 nM
IC50 ([6]; PC3/AR, 72 h): 6500 nM
IC50 ([7]; Lymphocyte, 72 h): 19300 nM
IC50 ([8]; Homo sapiens, MDA-MB-231, 72 h): > 10000 nM
IC50 ([9]; 72 h): 200 nM
IC50 ([10]; Homo sapiens, WI-38, 72 h): > 10000 nM

SMILES: C[C@]12CC[C@H]3[C@@H](CCC4C[C@H](O)[C@@H](N5CCN(C(=O)[C@@H]6CCCN6C(=O)c6ccc7ccccc7n6)CC5)C[C@@]43C)[C@@H]1CC[C@@H]2O (stereo partly drawn) [33 (AH-62), {4-[(2β,3α,17β)-3,17-dihydroxyandrostan-2-yl]piperazin-1-yl}[(2S)-1-(quinolin-2-ylcarbonyl)pyrrolidin-2-yl]methanone]
IC50 [1, 15]: 1400 nM
IC50 [1, 16]: 1400 nM
AUC(0-t) (in vivo; AUC (0-3 h)): 185 ng·h/mL
AUC(0-t) (in vivo; AUC (0-12 h)): 752 ng·h/mL

AUC (7 h) [2]: 372 ng·h/mL
AUC (24 h) [2]: 681 ng·h/mL
AUC(12 h) [2]: 525 ng·h/mL
SMILES: CC[C@]1(O)CC[C@H]2[C@@H]3CC[C@H]4C[C@H](O)[C@@H](N5CCN(C(=O)[C@@H]6CCCN6C(=O)c6cccc7ccccc67)CC5)C[C@]4(C)[C@H]3CC[C@@]21C [LPC-37]

SMILES: C[C@]12CC[C@H]3[C@@H](CCC4C[C@H](O)[C@@H](N5CCN(C(=O)[C@@H]6CCCN6C(=O)c6cc7ccccc7cn6)CC5)C[C@@]43C)[C@@H]1CC[C@@H]2O (stereo partly drawn) [31 (AH-38), {4-[(2β,3α,17β)-3,17-dihydroxyandrostan-2-yl]piperazin-1-yl}[(2S)-1-(isoquinolin-3-ylcarbonyl)pyrrolidin-2-yl]methanone]
IC50 [1, 15]: 1600 nM
IC50 [1, 16]: 1600 nM
AUC(0-t) (in vivo; AUC (0-3 h)): 244 ng·h/mL
AUC(0-t) (in vivo; AUC (0-12 h)): 991 ng·h/mL

IC50 [1, 11]: 1900 nM
IC50 [1, 12]: 1900 nM
AUC (0-3 h) [2]: 278 ng·h/mL
AUC (0-12 h) [2]: 1338 ng·h/mL
SMILES: C#C[C@]1(O)CC[C@H]2[C@@H]3CC[C@H]4C[C@H](O)[C@@H](N5CCN(C(=O)[C@@H]6CCCN6C(=O)c6ccc7ccccc7c6)CC5)C[C@]4(C)[C@H]3CC[C@@]21C [26 (AH-71), {4-[(2β,3α,5α,17α)-3,17-dihydroxypregn-20-yn-2-yl]piperazin-1-yl}[(2S)-1-(naphthalen-2-ylcarbonyl)pyrrolidin-2-yl]methanone]

SMILES: C[C@]12C[C@H](N3CCN(C(=O)[C@@H]4CCCN4C(=O)/C=C/c4ccccc4)CC3)[C@@H](O)C[C@@H]1CC[C@@H]1[C@@H]2CC[C@]2(C)[C@@H](O)CC[C@@H]12 [PC-42]
IC50 [3]: 400 nM
IC50 [4, 17]: 800 nM
IC50 (K-562 leukemia cells): 9300 nM
IC50 [1, 18]: 1500 nM
IC50 [5]: 500 nM
IC50 [6]: 4000 nM
IC50 [7, 19]: 7900 nM
IC50 [8]: > 10000 nM
IC50 [9]: 200 nM
AUC (7 h) [2]: 641 ng·h/mL
AUC (24 h) [2]: 767 ng·h/mL
AUC(12 h) [2]: 751 ng·h/mL
IC50 [10]: > 10000 nM

SMILES: C[C@]12CC[C@H]3[C@@H](CCC4C[C@H](OS(N)(=O)=O)[C@@H](N5CCN(C(=O)[C@@H]6CCCN6C(=O)c6ccc7ccccc7c6)CC5)C[C@@]43C)[C@@H]1CC[C@@H]2OS(N)(=O)=O (stereo partly drawn) [39 (AH-70), (2β,3α,17β)-2-{4-[1-(naphthalen-2-ylcarbonyl)-L-prolyl]piperazin-1-yl}androstane-3,17-diyl disulfamate]
IC50 [1, 15]: 5000 nM
IC50 [1, 16]: 5000 nM
AUC(0-t) (in vivo; AUC (0-3 h)): 11 ng·h/mL
AUC(0-t) (in vivo; AUC (0-12 h)): 67 ng·h/mL

SMILES: C[C@]12C[C@H](N3CCN(C(=O)[C@@H]4CCCN4C(=O)c4ccc5ccccc5c4)CC3)[C@@H](OC(=O)c3ccccc3C(=O)O)C[C@@H]1CC[C@@H]1[C@@H]2CC[C@]2(C)[C@@H](OC(=O)c3ccccc3C(=O)O)CC[C@@H]12 [38 (AH-75), 2,2′-{[(2β,3α,5α,17β)-2-{4-[1-(naphthalen-2-ylcarbonyl)-L-prolyl]piperazin-1-yl}androstane-3,17-diyl]bis(oxycarbonyl)}dibenzoic acid]
IC50 [1, 15]: > 10000 nM
IC50 [1, 16]: > 10000 nM
AUC(0-t) (in vivo; AUC (0-3 h)): 38 ng·h/mL
AUC(0-t) (in vivo; AUC (0-12 h)): 72 ng·h/mL

SMILES: C=C(C)[C@H]1CC=C(C(=O)N2CCC[C@H]2C(=O)N2CCN([C@H]3C[C@@]4(C)[C@@H](CC[C@@H]5[C@@H]4CC[C@]4(C)[C@@H](O)CC[C@@H]54)C[C@@H]3O)CC2)CC1 [PC-46]
IC50 [3]: 700 nM
IC50 [4, 17]: 1300 nM
IC50 (K-562 leukemia cells): 14100 nM
IC50 [1, 18]: 1900 nM
IC50 [5]: 900 nM
IC50 [6]: 4000 nM
IC50 [7, 19]: 9300 nM
IC50 [8]: > 10000 nM
IC50 [9]: 200 nM
AUC (7 h) [2]: 771 ng·h/mL
AUC (24 h) [2]: 830 ng·h/mL
AUC(12 h) [2]: 830 ng·h/mL
IC50 [10]: > 10000 nM

SMILES: C[C@]12CC[C@H]3[C@@H](CCC4C[C@H](O)[C@@H](N5CCN(C(=O)[C@@H]6CCCN6C(=O)c6ccc7ncccc7c6)CC5)C[C@@]43C)[C@@H]1CC[C@@H]2O (stereo partly drawn) [32 (AH-47), {4-[(2β,3α,17β)-3,17-dihydroxyandrostan-2-yl]piperazin-1-yl}[(2S)-1-(quinolin-6-ylcarbonyl)pyrrolidin-2-yl]methanone]
IC50 [1, 15]: 4700 nM
IC50 [1, 16]: 4700 nM
AUC(0-t) (in vivo; AUC (0-3 h)): 292 ng·h/mL
AUC(0-t) (in vivo; AUC (0-12 h)): 1170 ng·h/mL
